Reference: patent EP2813566A1, “Method for incorporating a compound into live yeast cells” (priority 2013, dated 2014)
Where a name gives a salt, the structure may show the parent alone.

Experiments:
Assay type in all cases: cell-based
[1] = test system: Escherichia coli (Migula1895) Castellani and Chalmers 1919AL, ATCC10536; experiment: Kirby-Bauer Disk Diffusion method, Escherichia coli reference strain; details: for inhibition zone: 25-41-52-41°C
From the text: The culture medium is Nutrient agar (Oxoid CM3) in g/litre Lab-Lemco beef extract 1; Yeast extract 2; Peptone 5; NaCl 5; Agar 15; pH7.4
(§1) For experimental purposes, the antimicrobial activities of the antibiotic standard solution of known concentration, of the yeasts within their incorporation broth after the methods steps, of the supernatants collected by centrifugation and of the pellets of the centrifuged yeasts, after each washing cycle, were compared, using a Kirby-Bauer Disk Diffusion method.
(§2) Sterile filter or blotter paper disks were laid down on the gelose, humidified with PBS 3 µl. 6 to 12µl of each above-mentioned fraction were then sucked into the blotting paper disk.

[2] = test system: Streptococcus pyogenes Rosenbach 1884AL, ATCC12344; experiment: Kirby-Bauer Disk Diffusion method, Streptococcus pyogenes reference strain; details: for inhibition zone diameter: Saccharomyces Lalvin
From the text: Streptococcus pyogenes Rosenbach 1884AL, ATCC12344 comes from the BCCM-LMG Bacteria collection, accession number 21599, laboratorium voor microbiologie, UGent, B-9000 Gent. The culture medium is Brain Heart Infusion Broth of typical composition (g/litre) (brain extract, heart extract and peptones 27.5; D+glucose 2.0; sodium chloride 5.0; di-sodium hydrogen phosphate 2.5; agar-agar (not present in the broth) 15.0. Brain Heart Infusion Agar was purchased from Oxoid CM 0375. The medium may be enriched with a sterilized horse serum from defibrinated horse blood for 20 % of global volume. Brain Heart Infusion SM 225 from Oxoid may also be employed for streptococcus culture broth.
as §1
(§3) The selected reference strains were Streptococcus pyogenes Rosenbach1884AL (BCCM-LMG 21599) or Lactobacillus paracasei subsp. paracasei Collins, Phillips and Zanoni 1989 VP (BCCM-LMG 9192).
(§4) The streptococci or lactobacilli reference strains populations were counted in a Neubauer cell, and then diluted in PBS so as to obtain 2 million germs in one ml buffer: 0.5 ml of the diluted culture medium were then streaked on the agar plates. Another method for obtaining the suitable density of reference bacteria is the culture medium dilution in PBS so as to obtain with a filter photometer, an optical density of 0.04 at 620nm.
as §2

[3] = test system: Streptococcus pyogenes or Lactobacillus paracasei; experiment: Kirby-Bauer Disk Diffusion method, reference strain not stated for the experiment; details: Saccharomyces bayanus Lalvin, red grape juice + Potato Plus Juice, clarithromycin 2mg/ml, pH 4.0
From the text: as §1, §3, §4, §2

[4] = test system: Lactobacillus paracasei subsp. paracasei; experiment: Kirby-Bauer Disk Diffusion method, Lactobacillus paracasei reference strain
From the text: Lactobacillus paracasei subsp. paracasei Collins, Phillips and Zanoni 1989 VP, type strain of Lactobacillus casei subsp. pseudoplantarum, came from the BCCM-LMG Bacteria collection, accession number 9192, ATCC 25598, depositor NCIMB. Lactobacillus kefiri Kandler and Kunath 1983VL, BCCM-LMG Bacteria collection, accession number 9480, ATCC 35411. A modified Man, Rogosa, Sharpe medium has been used for the Lactobacillus kefiri and for Lactobacillus paracasei culture, as a reference strain for antibiotic activity of the yeast strains: the composition (g/liter) peptone 10.0; meat extract 8.0; yeast extract 4.0; glucose 20.0; orthophosphate 2.0; magnesium sulphate heptahydrate 0.2; manganese sulphate tetrahydrate 0.05; ferrous sulphate 0.01; agar 10.0 The pH is adjusted to 6.2 with acetic acid.
as §1, §3, §4, §2

`NCC[C@H](O)C(=O)N[C@@H]1C[C@H](N)[C@@H](O[C@H]2O[C@H](CN)[C@@H](O)[C@H](O)[C@H]2O)[C@H](O)[C@H]1O[C@H]1O[C@H](CO)[C@@H](O)[C@H](N)[C@H]1O` [Amikacine sulfate standard in TBS, Amikacine sulphate] was tested. Which inhibition zone ([1]; Kluyveromyces marxianus, red grape juice + potatoes juice with selenium, Amukin 1mg/ml, pH 4.0, violet photoinduction) did it give?
Its inhibition zone is 26.5 mm.

With `CC[C@H]1OC(=O)[C@H](C)[C@@H](O[C@H]2C[C@@](C)(OC)[C@@H](O)[C@H](C)O2)[C@H](C)[C@@H](O[C@@H]2O[C@H](C)C[C@H](N(C)C)[C@H]2O)[C@](C)(OC)C[C@@H](C)C(=O)[C@H](C)[C@@H](O)[C@]1(C)O` [Clarithromycin standard (2mg/ml), clarithromycin] as the compound, how does the “inhibition zone in diameter” value ([2]; Kluyveromyces marxianus + Lactobacillus kefiri, red grape juice + sweet potatoes juice with selenium, clarithromycin, pH 4.0, 25-41-52-41°C, violet photoinduction) read?
The value was 47 mm.

And the inhibition zone diameter ([2]; YPD broth pH 6.5, clarithromycin 2mg/ml, simplified sequence 25-37-25°C (mild heat stress))?
The inhibition zone diameter was 38 mm.

What about the inhibition zone diameter ([2]; red grape juice + raw potatoes juice with selenium, clarithromycin 2mg/ml, pH 4.0, thermal plates 25-41-52-41-35-25°C, 8µl on disk) of the same compound?
Its inhibition zone diameter is 37 mm.

What about the inhibition zone ([3]; after sequence 25-35-52-41°C (last thermal plate)) of the same compound?
Its inhibition zone is 42 mm.

What about the inhibition zone ([3]; after sequence 25-39-52-41°C (last thermal plate)) of the same compound?
The inhibition zone was 42 mm.

And the inhibition zone diameter ([4]; Saccharomyces Lalvin, YPD broth pH 6.5, clarithromycin 2mg/ml, experiment with lethal heat stress 25-34-55-34-25°C)?
Its inhibition zone diameter is 40.5 mm.

And the inhibition zone ([4]; Saccharomyces Lalvin, clarithromycin 2mg/ml, pH 4.0, 25-41-43-35-25°C)?
The inhibition zone was 41 mm.

What about the inhibition zone ([4]; Saccharomyces Lalvin, clarithromycin 2mg/ml, pH 4.0, 25-41-45-35-25°C) of the same compound?
The inhibition zone was 41 mm.

What about the inhibition zone ([4]; Saccharomyces Lalvin, clarithromycin 2mg/ml, pH 4.0, 25-41-47-35-25°C) of the same compound?
Its inhibition zone is 38.5 mm.

What about the inhibition zone ([4]; Saccharomyces Lalvin, clarithromycin 2mg/ml, pH 4.0, 25-41-49-35-25°C) of the same compound?
Its inhibition zone is 40 mm.

What about the inhibition zone ([4]; Saccharomyces Lalvin, clarithromycin 2mg/ml, pH 4.0, 25-41-51-35-25°C) of the same compound?
Its inhibition zone is 40 mm.

What about the inhibition zone ([4]; Saccharomyces Lalvin, clarithromycin 2mg/ml, pH 4.0, 25-41-53-35-25°C) of the same compound?
Its inhibition zone is 40 mm.

What about the inhibition zone ([4]; Saccharomyces Lalvin, clarithromycin 2mg/ml, pH 4.0, 25-41-54-35-25°C) of the same compound?
Its inhibition zone is 40 mm.

What about the inhibition zone ([4]; Saccharomyces Lalvin, red grape juice + Potato Plus Juice, clarithromycin 2mg/ml, pH 4.0, 25-41-41-35-25°C (upper plate 41°C)) of the same compound?
The inhibition zone was 41 mm.

And the inhibition zone diameter ([4]; Saccharomyces Lalvin, red grape juice + raw potatoes juice with selenium, clarithromycin 2mg/ml, pH 4.0, 25-41-52-41-35-25°C, 8µl on disk)?
Its inhibition zone diameter is 38 mm.

And the inhibition zone ([4]; Saccharomyces bayanus Lalvin QA23, red grape juice + raw potatoes juice with selenium, clarithromycin 2mg/ml, pH 4.0, 25-41-52-41-35°C, skullcap extract after 35°C plate)?
Its inhibition zone is 42 mm.

What about the inhibition zone ([4]; Saccharomyces bayanus Lalvin, clarithromycin 2mg/ml, pH 6.5, after sequence 25-41-52-41-35-25°C (last thermal plate), 8µl) of the same compound?
Its inhibition zone is 38.5 mm.

And the inhibition zone ([4]; Saccharomyces bayanus Lalvin, medium a: red grape juice + Potato Plus Juice, clarithromycin 2mg/ml, pH 4.0, 25-41-52-41-35-25°C, violet photoinduction)?
The inhibition zone was 39.5 mm.

And the inhibition zone ([4]; Saccharomyces bayanus Lalvin, medium c: red grape juice + Potato Plus Juice + spelt wheat hydrolysate, clarithromycin 2mg/ml, pH 6.5, 25-41-52-41-35-25°C, violet photoinduction)?
Its inhibition zone is 36.5 mm.

With `CC[C@H]1OC(=O)[C@H](C)[C@@H](O[C@H]2C[C@@](C)(OC)[C@@H](O)[C@H](C)O2)[C@H](C)[C@@H](O[C@@H]2O[C@H](C)C[C@H](N(C)C)[C@H]2O)[C@](C)(O)C[C@@H](C)C(=O)[C@H](C)[C@@H](O)[C@]1(C)O` [Erythromycin standard (2mg/ml), Erythromycin] as the compound, how does the inhibition zone ([2]; Saccharomyces bayanus Lalvin, red grape juice + alkaline hydrolyzed spelt wheat flour + parsley juice, erythromycin 1mg/ml, pH 7.0, 25-41-52-41-35-25°C, violet photoinduction, BHI agar with defibrinated horse blood) read?
Its inhibition zone is 48 mm.

For `CS(=O)(=O)c1ccc([C@@H](O)[C@@H](CF)NC(=O)C(Cl)Cl)cc1` [Florfenicol], which inhibition zone ([1]; Saccharomyces bayanus Lalvin and Saccharomyces cerevisiae combined, red grape juice medium, florfénicol 2mg/ml, pH 7.5, 20µl deposit) is on record?
Its inhibition zone is 39 mm.

For `O=C1CN(/N=C/c2ccc([N+](=O)[O-])o2)C(=O)N1` [Standard nitrofurantoin in DMSO, 1mg/ml, Nitrofurantoin], which Inhibition zone diameters ([1]; 20µl deposits, Saccharomyces cerevisiae bayanus Lalvin QA23, nitrofurantoin, pH around 7.0, 90minutes 41°C, 60minutes 52°C) is on record?
The Inhibition zone diameters was 32 mm.
